{"source": "patent US7772272B2", "about": "“Method for enhancing glucose uptake into warm-blooded animal adipocytes” (Daiichi Sankyo Company, Limited, priority 2003, dated 2010)", "key": {"3T3-L1 adipocytes": {"test_system": "3T3-L1 adipocytes", "assay": "Glucose uptake enhancing action (in vitro), 3H-2-deoxyglucose uptake in 3T3-L1 adipocytes", "format": "cell-based", "conditions": "10 μM test compound for 72 hours, insulin added, P<0.001", "experimental": "Preadipocyte cell line 3T3-L1 was purchased from the American Type Culture Collection (ATCC). The 3T3-L1 cells were plated onto a 24-well, collagen-coated plate and cultured to saturation in growth medium (DMEM, 25 mM glucose, 10% FCS, 100 u/ml penicillin, 0.1 mg/ml streptomycin) under conditions of 37° C. and 5% CO2. Five days after cell proliferation had reached a saturated state, the medium was replaced with medium (DMEM, 25 mM glucose, 10% FCS, 100 u/ml penicillin, 0.1 mg/ml streptomycin) to which had been added 1 μM insulin, 0.5 mM 3-isobutyl-1-methylxanthine and 1 μM dexamethazone to initiate adipocyte differentiation. Two days later, the medium was replaced with growth medium containing 1 μM insulin followed by additionally culturing the cells for 2 days. Subsequently, the medium was replaced with fresh growth medium every 3 days, and the 3T3-L1 adipocytes were prepared on day 10 after the start of differentiation. […]\nMeasurement of glucose uptake was carried out in the manner described below. […] 160 μl of the cell lysate were mixed with 4 ml of Hionic Fluor (Perkin-Elmer) liquid scintillation counter cocktail followed by measurement of the radioactivity in the cell lysate with a liquid scintillation counter (Packard). The determined radioactivity of the ^3H-labeled was used as an indicator of the amount of glucose taken up into the cells."}, "C57BL/ksj-db/db mice [1]": {"test_system": "C57BL/ksj-db/db mice", "assay": "Blood glucose levels after administration of pravastatin in feed, C57BL/ksj-db/db mice", "format": "in vivo, mouse", "conditions": "pravastatin mixed in feed (0.03% and 0.06% wt/wt), dose group, non-dose group 633 mg/dl", "description": "(§1) C57BL/ksj-db/db mice (male, age 5 weeks) and KKAy mice (female, age 4 weeks) were purchased from Clea Japan, and used in the test after acclimating to the test environment for 1 week. The mice were housed 5 animals to a cage and given unrestricted access to feed (F2, Funabashi Farm) and water.\n(§2) The body weights of the animals were measured and blood samples were collected on the day the test started, and the animals were divided into two groups of 5 animals per cage based on their body weights and blood glucose levels. Blood samples were collected at the start of the test and days 4, 7 and 14 after the start of the test in the case of the C57BL/ksj-db/db mice, and at the start of the test and on days 4, 7, 14 and 28 after the start of the test in the case of the KKAy mice. Blood samples were collected from the tail vein in an amount equal to one heparinized capillary tube.\n(§3) Pravastatin powder was added to the F2 powder to 0.03% and 0.06% (wt/wt), uniformly mixed and provided to the animals in individual cages. The amount of feed and general behaviour were checked at least once a day.\n(§4) Blood glucose levels were measured on the days when blood samples were collected."}, "KKAy mice": {"test_system": "KKAy mice", "assay": "Blood glucose levels after administration of pravastatin in feed, KKAy mice", "format": "in vivo, mouse", "conditions": "pravastatin mixed in feed (0.03% and 0.06% wt/wt), dose group, non-dose group 521 mg/dl", "description": "as §1, §2, §3, §4"}, "C57BL/ksj-db/db mice [2]": {"test_system": "C57BL/ksj-db/db mice", "assay": "Insulin tolerance test using pravastatin-dosed mice", "format": "in vivo, mouse", "conditions": "pravastatin in feed for 2 weeks, 60 minutes after insulin 1 u/kg i.p., non-dose group 411 mg/dl", "description": "(§5) A group administered with pravastatin by mixing in feed for 2 weeks and a non-dosed group of C57BL/ksj-db/db mice (n=5) were fasted for 2 hours. After measuring the body weight of each animal, insulin (Humalin, Lilly) was administered intraperitoneally at 1 u/kg, and blood samples were collected from the tail vein immediately before the start of administration and at 30, 60, 90 and 120 minutes after the start of administration followed by measurement of blood glucose levels."}, "C57BL/ksj-db/db mice [3]": {"test_system": "C57BL/ksj-db/db mice", "assay": "Glucose tolerance test using pravastatin-dosed mice", "format": "in vivo, mouse", "conditions": "pravastatin in feed for 2 weeks, 60 minutes after administration (glucose 2 g/kg i.p.), non-dose group 517 mg/dl", "description": "as §5, with “16 hours starting on the day before the start of the test.” for “2 hours.”, “glucose solution ([…])” for “insulin (Humalin, Lilly)”, “to 2 g/kg,” for “at 1 u/kg,”"}, "[4]": {"test_system": "C57BL/6J mouse adipocytes", "assay": "Glucose uptake test using isolated adipocytes from pravastatin-dosed C57BL/6J mice", "format": "in vivo", "conditions": "isolated adipocytes from pravastatin-dosed C57BL/6J mice (normal mice), insulin, 3H-2-deoxyglucose", "description": "(§6) • (i) Epididymal adipose tissue was excised from a group administered with pravastatin for 1 week and a non-dosed group of C57BL/ksj-db/db mice (n=5). The excised adipose tissue was handled under conditions of 37° C. at all times. The adipose tissue was cut into small pieces with a scissors, followed by the addition of medium (DMEM, 1 mM sodium pyruvate, 25 mM HEPES pH 7.4, 0.1% BSA, 100 u/ml penicillin, 0.1 mg/ml streptomycin) containing 1 mg/ml of collagenase I (Worshington), and shaking at 37° C. and 80 rpm. Following the reaction, 2.5 volumes of the aforementioned medium were added, the adipocytes were screened out by passing the cell suspension through a 260 μm mesh sieve, and again passed through a 100 μm mesh sieve to prepare an adipocyte suspension.\n(§7) An adipocyte suspension was prepared for C57BL/6J mice (normal mice) in the same manner as described above. • (ii) The glucose uptake test was carried out in the manner as described below. […] After cutting out the oil layer of the upper layer containing adipocytes with a knife, it was transferred to a glass vial containing 4 ml of Hionic Fluor (Perkin-Elmer) liquid scintillation counter cocktail followed by measurement of specific radioactivity. The amount of measured radioactivity of the ^3H-2-deoxyglucose was used as an indicator of the amount of glucose taken up by the cells. […]"}, "[5]": {"test_system": "C57BL/ksj-db/db mouse adipocytes", "assay": "Glucose uptake test using isolated adipocytes from pravastatin-dosed C57BL/ksj-db/db mice", "format": "in vivo", "conditions": "isolated epididymal adipocytes from C57BL/ksj-db/db mice dosed with pravastatin for 1 week, insulin, 3H-2-deoxyglucose", "description": "as §6, §7"}}, "data": [{"molecule": "CC[C@H](C)C(=O)O[C@H]1C[C@H](O)C=C2C=C[C@H](C)[C@H](CC[C@@H](O)C[C@@H](O)CC(=O)O)[C@H]21", "note": "[pravastatin, (+)-(3R,5R)-3,5-dihydroxy-7-[(1S,2S,6S,8S,8aR)-6-hydroxy-2-methyl-8-[(S)-2-methylbutyryloxy]-1,2,6,7,8,8a-hexahydro-1-naphthyl]heptanoic acid]", "values": [{"measurement": "amount of glucose uptake into the cells relative to control group", "setting": "3T3-L1 adipocytes", "result": 1.9, "unit": "times"}, {"measurement": "blood glucose level", "setting": "C57BL/ksj-db/db mice [1]", "result": 438, "unit": "mg/dL"}, {"measurement": "blood glucose level", "setting": "KKAy mice", "result": 351, "unit": "mg/dL"}, {"measurement": "blood glucose level in insulin tolerance test", "setting": "C57BL/ksj-db/db mice [2]", "result": 324, "unit": "mg/dL"}, {"measurement": "blood glucose level in glucose tolerance test", "setting": "C57BL/ksj-db/db mice [3]", "result": 342, "unit": "mg/dL"}, {"measurement": "amount of glucose uptake by dose group relative to non-dose group", "setting": "[4]", "result": 1.4, "unit": "times"}, {"measurement": "amount of glucose uptake by dose group relative to non-dose group", "setting": "[5]", "result": 2.0, "unit": "times"}]}]}
